Assay [1] deals with A/Aichi/2/68 H3N2 (X31). The format is binding, influenza A virus.
In assay [2] the test system is A/NewYork/55/2004 H3N2. The format is binding, influenza A virus.
Assay [3] has as its system A/California/7/2009 H1N1. Type of assay: binding, influenza A virus.
In assay [4] the test system is X31 virus (A/Aichi/2/68 H3N2). As to the kind of experiment: Inhibition of influenza A virus binding to fetuin (SPR).
Assay [5] concerns the target A/Panama/2007/1999 H3N2. Type of assay: cell-based, influenza A virus. The note with it: read-out: Mean Ki(HAI).
Assay [6] concerns influenza A virus. The format is cell-based.
Assay [7] relates to A/Aichi/2/68 H3N2. The format is cell-based, influenza A virus.
Assay [8] relates to A/Aichi/2/68 H3N2. In words: Viral fusion with human erythrocyte ghosts (R18 dequenching). Type of assay: cell-based, influenza A virus. The note with it: concentration-dependent, maximum; pH 5; FIG. 7.
Assay [9] has as its system A/Aichi/2/68 H3N2. In words: Infectivity inhibition assay (MTS, MDCK II cells). Type of assay: cell-based, influenza A virus. The note with it: MOI 0.05, 24 h, concentration dependent, maximum, FIG. 8.
Assay [10] deals with A/Mute swan/Germany/R901/06 H7N1.
Assay [11] deals with A/Aichi/2/68 H3N2.
In assay [12] the test system is A/Mute swan/Germany/R901/06 K3141 H7N1.
The test system of assay [13] is influenza A virus strains H3N2 (X31), H7N1, H1N1, H5N1, H3N2 (Victoria), H3N2 (NY). The format is binding.

No end group written: not given here.

In general, IC50 refers to the concentration that gives 50% inhibition. The term Ki denotes the equilibrium dissociation constant of an inhibitor or competing ligand from its target.

Consider KKKKFYGYDVFF-NH2 [SEQ ID NO:28], for which the “factor of increased binding signal in comparison to SEQ ID NO:1” value in [1] worked out at 2. For the same substance, the “factor of enhanced binding capability in comparison to SEQ ID NO:1” value in [2] was determined as 4; in [3] it was 24. Further, in assay [3], the “binding preference among the three tested strains” value is listed as “shifts the binding preference strongly to H1N1/2009”. Moreover, the concentration for half-maximal inhibition (IC50) amounted to 20 µM in assay [4] (A/Aichi/2/68 H3N2 (X31), SPR, read-out: Inhibition of binding to fetuin (IC50, RB)); 30 µM in assay [10]; 18 µM in assay [11] (A/Aichi/2/68); 23 µM in assay [12]. The “fold lower IC50,RB in comparison to reference peptide SEQ ID NO:1” value in assay [4] (X31) is listed as “about 4.5 fold”. In addition, the Ki in assay [5] is 0.1 µM; in [11] (read-out: Mean Ki(HAI)), 31.9 µM; in assay [12] (read-out: Mean Ki(HAI)), 36.5 µM. Also, in assay [6], the “fold lower Ki(HAI) than the conventional peptides (SEQ ID NO:100, 101, 102)” value is listed as “up to 1,600 fold”. The “inhibition of viral attachment to single red blood cells” value in assay [7] is “up to 50%”. The “inhibition of fusion efficiency with erythrocyte ghosts” value in assay [8] was “up to 40%”. Further, the “protection from infection / reduction of infectivity” value in assay [9] is recorded as “up to 55%”.

On to “SEQ ID NO:23 (FYYYDVFY; Synthetically produced peptide)”, for which the “binding preference among the three tested strains” value in assay [3] was “shifts the binding preference strongly to H1N1/2009”.

“SEQ ID NO:29 (FYYYDVFF; Synthetically produced peptide)”: the “binding preference among the three tested strains” value in assay [3] is “shifts the binding preference strongly to H1N1/2009”.

“SEQ ID NO:33 (FYGYDVAF; Synthetically produced peptide)”: the “relative binding preference for virus strains, in descending order” value (“relative binding preference” for short) in assay [13] was “H7N1 over H3N2 (X31), H3N2 (NY) and H5N1”.

Take “SEQ ID NO:34 (FLGYDVFF; Synthetically produced peptide)”: in assay [13], the “relative binding preference” value was “H3N2 (NY) over H5N1, H3N2 (X31) and H7N1”.

In the case of “SEQ ID NO:76 (FYDYDRFY; Synthetically produced peptide)”, the results for the “virus binding (SPR)” value in [1], in assay [2] and in assay [3] were “does not bind”, “specifically binds” and “does not bind”, respectively.

In the case of “SEQ ID NO:97 (FYGYDVKF; Synthetically produced peptide)”, in assay [13], the “relative binding preference” value was “H5N1 over H7N1, H3N2 (X31) and H3N2 (NY)”.
